From PMC9697818, “Design, Synthesis and Biological Assessment of Rhodanine-Linked Benzenesulfonamide Derivatives as Selective and Potent Human Carbonic Anhydrase Inhibitors” (Molecules, 2022) come the findings set out here.

For orientation: Ki means a measure of affinity in units of concentration, obtained from inhibition or displacement.

What all share (test): stopped-flow CO2 hydration assay
Holding throughout (format): biochemical

One experiment addresses T1, hCA II (Homo sapiens, UniProt P00918).
T1 construct: gene CA2; recombinant, cytosolic isoform
An outline of the steps:
(§1)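 Inhibition of recombinant human carbonic anhydrase isozymes was measured by stopped-flow following the enzyme-catalysed CO2 hydration for 5–10 s. Assays used 0.2 mM Phenol Red read at 557 nm, 10 mM Hepes (pH 7.4), 10 mM NaClO4, CO2-saturated water at 25 °C as substrate and 5–12 nM enzyme, with inhibitor preincubated with enzyme for 10 min at room temperature. Inhibitor stocks of 10 mM in DMSO-water 1:1 were diluted down to 0.01 nM in assay buffer, using at least seven concentrations. Inhibition constants (Ki) came from non-linear least-squares fitting with the Cheng–Prusoff equation and are means of at least three determinations.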

The target in the next experiment is T2, hCA XII (Homo sapiens, UniProt O43570).
T2 construct: gene CA12; recombinant, tumor-associated transmembrane isoform
In short, it runs like this:
as §1

A further experiment concerns the target T3, hCA I (Homo sapiens, UniProt P00915).
T3 construct: gene CA1; recombinant, cytosolic isoform
In short, it runs like this:
as §1

The target in another experiment is T4, hCA IX (Homo sapiens, UniProt Q16790).
T4 construct: gene CA9; recombinant, tumor-associated transmembrane isoform
An outline of the steps:
as §1

T3 sequence (P00915 2-261): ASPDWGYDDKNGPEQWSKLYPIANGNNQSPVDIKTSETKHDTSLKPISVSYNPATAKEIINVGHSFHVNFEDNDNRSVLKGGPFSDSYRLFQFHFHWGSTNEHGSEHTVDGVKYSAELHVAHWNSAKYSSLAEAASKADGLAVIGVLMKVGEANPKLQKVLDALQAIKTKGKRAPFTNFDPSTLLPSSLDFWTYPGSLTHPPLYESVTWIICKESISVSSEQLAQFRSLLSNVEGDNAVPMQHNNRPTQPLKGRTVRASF
T2 sequence (O43570 30-289 limits assumed): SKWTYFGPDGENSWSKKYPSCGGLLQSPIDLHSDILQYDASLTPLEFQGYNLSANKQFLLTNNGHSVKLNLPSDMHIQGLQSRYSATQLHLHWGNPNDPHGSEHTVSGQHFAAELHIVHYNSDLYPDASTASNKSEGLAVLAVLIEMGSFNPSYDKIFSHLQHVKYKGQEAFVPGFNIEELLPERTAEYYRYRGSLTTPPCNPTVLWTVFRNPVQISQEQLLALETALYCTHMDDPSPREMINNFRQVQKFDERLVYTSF

In the case of `NS(=O)(=O)c1ccc(NC(=O)CN2C(=O)/C(=C3/C(=O)Nc4ccc(C(F)(F)F)cc43)SC2=S)cc1` [9c, (Z)-2-(4-Oxo-5-(2-oxo-5-(trifluoromethyl)indolin-3-ylidene)-2-thioxothiazolidin-3-yl)-N-(4-sulfamoylphenyl)acetamide], the inhibition constant Ki at hCA II was 67.8 nM; on hCA XII it was 37.8 nM; on hCA I, 319 nM; at hCA IX, 13.3 nM.

Regarding `NS(=O)(=O)c1ccc(NC(=O)CN2C(=O)/C(=C3/C(=O)Nc4ccc(Cl)cc43)SC2=S)cc1` [9d, (Z)-2-(5-(5-Chloro-2-oxoindolin-3-ylidene)-4-oxo-2-thioxothiazolidin-3-yl)-N-(4-sulfamoylphenyl)acetamide], the Ki on hCA II is 5.2 nM; on hCA XII it was 26.3 nM; on hCA I it was 35.8 nM; on hCA IX it was 6 nM.
